Source: article PMC11388281, “Prevotella are major contributors of sialidases in the human vaginal microbiome” (Proceedings of the National Academy of Sciences of the …, 2024)

How the values were obtained:
Assay in all cases: fluorescence sialidase assay with 4-MU-Neu5Ac
Type in all cases: biochemical
PtNanH2 = target: T1, PtNanH2 (Hoylesella timonensis, UniProt D1VWZ8)
T1 construct: gene HMPREF9019_0332; full-length gene in pET28a, N-terminal His6 tag, E. coli BL21(DE3); 1,030 amino acids incl. predicted signal peptide

PdNanH = target: T2, PdNanH (Prevotella denticola, UniProt F0H7U2); conditions: 100 µM 4-MU-Neu5Ac, 5 nM enzyme, sodium acetate pH 5.5, 37 °C
T2 construct: gene HMPREF9303_0049; full-length gene in pET28a, N-terminal His6 tag, E. coli BL21(DE3); predicted signal peptide
From the text: fluorescence sialidase assay with 4-MU-Neu5Ac on PdNanH | All enzymes were inhibited by the well-characterized, broad-spectrum sialidase inhibitor, Neu5ac2en

GvNanH3 = target: T3, GvNanH3 (Gardnerella vaginalis, UniProt S4HLQ0)
T3 construct: full-length gene in pET28a, N-terminal His6 tag, E. coli BL21(DE3)
From the text: fluorescence sialidase assay with 4-MU-Neu5Ac on GvNanH3 | All enzymes were inhibited by the well-characterized, broad-spectrum sialidase inhibitor, Neu5ac2en

PtNanH1 = target: T4, PtNanH1 (Hoylesella timonensis, UniProt D1VY87)
T4 construct: gene HMPREF9019_1088; full-length gene in pET28a, N-terminal His6 tag, E. coli BL21(DE3); 413 amino acids incl. predicted signal peptide

PbNanH = target: T5, PbNanH (Prevotella bivia, UniProt I4ZBT3); conditions: 100 µM 4-MU-Neu5Ac, 5 nM enzyme, sodium acetate pH 5.5, 37 °C
T5 construct: gene PrebiDRAFT_2006; full-length gene in pET28a, N-terminal His6 tag, E. coli BL21(DE3)
From the text: fluorescence sialidase assay with 4-MU-Neu5Ac on PbNanH | All enzymes were inhibited by the well-characterized, broad-spectrum sialidase inhibitor, Neu5ac2en

| Structure (SMILES) | IC50 (PtNanH2) | IC50 (PdNanH) | IC50 (GvNanH3) | IC50 (PtNanH1) | IC50 (PbNanH) |
| --- | --- | --- | --- | --- | --- |
| CC(=O)N[C@H]1[C@H]([C@H](O)[C@H](O)CO)OC(C(=O)O)=C[C@@H]1N=C(N)N [Zanamivir] | 33.6 ± 15.5 µM |  |  |  |  |
| CC(=O)N[C@H]1[C@H]([C@H](O)[C@H](O)CO)OC(C(=O)O)=C[C@@H]1O [Neu5Ac2en] | 56 ± 23 µM | 50.5 ± 22.5 µM | 29 ± 5.6 µM | 180 ± 92.3 µM | 103 ± 20.3 µM |
